Test results: US10336775B2 (Asceneuron SA, priority 2014, dated 2019)

The molecules below were run against His-Tagged hOGA (human O-GlcNAcase) (Homo sapiens (Human), UniProt O60502) (assay: Human O-GlcNAcase enzyme inhibition assay (Example B01)). Details: not given.
Assay type: biochemical

His-Tagged hOGA (human O-GlcNAcase), sequence (O60502 whole entry): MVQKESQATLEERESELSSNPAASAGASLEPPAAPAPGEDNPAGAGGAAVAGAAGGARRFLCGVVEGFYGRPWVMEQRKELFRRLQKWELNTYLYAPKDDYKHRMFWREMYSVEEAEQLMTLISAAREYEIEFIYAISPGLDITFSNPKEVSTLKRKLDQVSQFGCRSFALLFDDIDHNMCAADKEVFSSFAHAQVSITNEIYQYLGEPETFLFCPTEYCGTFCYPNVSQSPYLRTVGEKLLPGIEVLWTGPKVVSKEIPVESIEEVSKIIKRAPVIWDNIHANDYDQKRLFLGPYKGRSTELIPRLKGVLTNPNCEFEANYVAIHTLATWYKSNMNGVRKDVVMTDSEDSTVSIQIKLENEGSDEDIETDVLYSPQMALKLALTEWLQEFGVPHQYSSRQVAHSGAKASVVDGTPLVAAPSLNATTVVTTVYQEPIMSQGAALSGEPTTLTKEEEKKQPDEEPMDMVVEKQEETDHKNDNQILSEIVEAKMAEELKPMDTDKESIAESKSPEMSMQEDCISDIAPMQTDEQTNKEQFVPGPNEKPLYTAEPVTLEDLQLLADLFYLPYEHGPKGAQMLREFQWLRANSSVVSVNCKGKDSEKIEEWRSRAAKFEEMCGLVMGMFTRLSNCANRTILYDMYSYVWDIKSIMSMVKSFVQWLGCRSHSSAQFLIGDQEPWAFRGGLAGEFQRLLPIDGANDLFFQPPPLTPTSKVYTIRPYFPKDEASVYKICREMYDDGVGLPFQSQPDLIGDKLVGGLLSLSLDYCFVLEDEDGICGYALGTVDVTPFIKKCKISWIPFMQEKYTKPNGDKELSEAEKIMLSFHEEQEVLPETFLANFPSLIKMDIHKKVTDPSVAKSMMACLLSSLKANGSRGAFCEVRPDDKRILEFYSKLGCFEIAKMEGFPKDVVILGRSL

| Structure (SMILES) | IC50 |
| --- | --- |
| CC(c1ccc2c(c1)OCO2)N1CCN(c2ccc([N+](=O)[O-])cn2)CC1 (centres unmarked) [Example 55, 1-(1-(benzo[d][1,3]dioxol-5-yl)ethyl)-4-(5-nitropyridin-2-yl)piperazine] | 5e-08 to 2e-07 M |

Same assay, conditions: OGA IC50 (M), OGA enzyme inhibition assay; activity range classes defined in μM

| Structure (SMILES) | IC50 |
| --- | --- |
| CC(c1ccc2cccnc2c1)N1CCN(c2ncccn2)CC1 (single isomer, unassigned) [Example 95, (S)-7-(1-(4-(pyrimidin-2-yl)piperazin-1-yl)ethyl)quinolone or (R)-7-(1-(4-(pyrimidin-2-yl)piperazin-1-yl)ethyl)quinoline] | 5e-08 to 2e-07 M |
| CC(=O)Nc1cnc(N2CCN(C(C)c3ccc4cccnc4c3)CC2)nc1 (racemic) [Example 120, N-(2-(4-(1-(quinolin-7-yl)ethyl)piperazin-1-yl)pyrimidin-5-yl)acetamide] | 5e-08 to 2e-07 M |

Same assay, conditions: OGA enzyme inhibition assay; activity range classes defined in μM; read-out: OGA IC50

| Structure (SMILES) | IC50 |
| --- | --- |
| CC(=O)c1cnc(N2CCN([C@@H](C)c3ccc4c(c3)OCO4)CC2)nc1 [Example 167, (S)-1-(2-(4-(1-(benzo[d][1,3]dioxol-5-yl)ethyl)piperazin-1-yl)pyrimidin-5-yl)ethan-1-one] | < 5e-08 M |
| CC(=O)Nc1nnc(N2CCN(C(C)c3ccc4ncsc4c3)CC2)s1 (racemic) [Example 179, N-(5-(4-(1-(benzo[d]thiazol-6-yl)ethyl)piperazin-1-yl)-1,3,4-thiadiazol-2-yl)acetamide] | 1e-06 to 1e-05 M |
| COc1ccnc(N2CCN(C(C)c3ccc4c(c3)OCO4)CC2)n1 (racemic) [Example 39, 2-(4-(1-(Benzo[d][1,3]dioxol-5-yl)ethyl)piperazin-1-yl)-4-methoxypyrimidine] | 5e-08 to 2e-07 M |
| Cc1cnn(C2CCN(C(C)c3ccc4c(c3)OCO4)CC2)c1 (racemic) [Example 3, 1-(1-(benzo[d][1,3]dioxol-5-yl)ethyl)-4-(4-methyl-1H-pyrazol-1-yl)piperidine] | 1e-06 to 1e-05 M |
| Cc1noc(C2CCN(C(C)c3ccc4c(c3)OCO4)CC2)n1 (racemic) [Example 4, 5-(1-(1-(Benzo[d][1,3]dioxol-5-yl)ethyl)piperidin-4-yl)-3-methyl-1,2,4-oxadiazole] | 2e-07 to 1e-06 M |
| COc1cnc(N2CCN([C@@H](C)c3ccc4c(c3)OCO4)CC2)nc1 [Example 195, (S)-2-(4-(1-(benzo[d][1,3]dioxol-5-yl)ethyl)piperazin-1-yl)-5-methoxypyrimidine] | < 5e-08 M |
| CCCNc1ccnc(N2CCN(C(C)c3ccc4c(c3)OCO4)CC2)n1 (racemic) [Example 45, 2-(4-(1-(Benzo[d][1,3]dioxol-5-yl)ethyl)piperazin-1-yl)-N-propylpyrimidin-4-amine] | 2e-07 to 1e-06 M |
| C[C@@H](c1ccc2c(c1)OCO2)N1CCN(c2nc3ccccc3s2)CC1 [Example 136, (S)-2-(4-(1-(benzo[d][1,3]dioxol-5-yl)ethyl)piperazin-1-yl)benzo[d]thiazole] | 2e-07 to 1e-06 M |
| CC(c1ccc2c(c1)OCO2)N1CCN(c2ncc(CO)s2)CC1 (racemic) [Example 28, (2-(4-(1-(Benzo[d][1,3]dioxol-5-yl)ethyl)piperazin-1-yl)thiazol-5-yl)methanol] | 5e-08 to 2e-07 M |
| CC(c1ccc2c(c1)OCO2)N1CCN(c2nc(C(F)(F)F)cs2)CC1 (racemic) [Example 13, 2-(4-(1-(Benzo[d][1,3]dioxol-5-yl)ethyl)piperazin-1-yl)-4-(trifluoromethyl)thiazole] | 2e-07 to 1e-06 M |
| CC(c1ccc2c(c1)OCO2)N1CCN(c2nc(CO)cs2)CC1 (racemic) [Example 29, (2-(4-(1-(Benzo[d][1,3]dioxol-5-yl)ethyl)piperazin-1-yl)thiazol-4-yl)methanol] | 5e-08 to 2e-07 M |
| CC(c1ccc2c(c1)OCO2)N1CCN(c2ncc(CN3CCOCC3)s2)CC1 (racemic) [Example 79, 4-((2-(4-(1-(Benzo[d][1,3]dioxol-5-yl)ethyl)piperazin-1-yl)thiazol-5-yl)methyl)morpholine] | 5e-08 to 2e-07 M |
| CC(=O)Nc1cnc(N2CCN(C(C)c3cccc4cccnc34)CC2)nc1 (racemic) [Example 127, N-(2-(4-(1-(quinolin-8-yl)ethyl)piperazin-1-yl)pyrimidin-5-yl)acetamide] | 1e-06 to 1e-05 M |
| CC(c1ccc2nccnc2c1)N1CCN(c2ccc(C(F)(F)F)cn2)CC1 (racemic) [Example 165, 6-(1-(4-(5-(trifluoromethyl)pyridin-2-yl)piperazin-1-yl)ethyl)quinoxaline] | 2e-07 to 1e-06 M |
| CC(c1ccc2c(c1)OCO2)N1CCN(c2cc(Cl)ncn2)CC1 (racemic) [Example 24, 4-(4-(1-(Benzo[d][1,3]dioxol-5-yl)ethyl)piperazin-1-yl)-6-chloropyrimidine] | 5e-08 to 2e-07 M |
| CC(c1ccc2c(c1)OCO2)N1CCN(c2nc(C(=O)NC3CCCCC3)cs2)CC1 (racemic) [Example 33, 2-(4-(1-(Benzo[d][1,3]dioxol-5-yl)ethyl)piperazin-1-yl)-N-cyclohexylthiazole-4-carboxamide] | 2e-07 to 1e-06 M |
| CC(c1ccc2nccnc2c1)N1CCN(c2nc3ccccc3s2)CC1 (racemic) [Example 135, 2-(4-(1-(quinoxalin-6-yl)ethyl)piperazin-1-yl)benzo[d]thiazole] | 1e-06 to 1e-05 M |
| Cc1ncc(N2CCN(C(C)c3ccc4c(c3)OCO4)CC2)s1 (racemic) [Example 37, 5-(4-(1-(Benzo[d][1,3]dioxol-5-yl)ethyl)piperazin-1-yl)-2-methylthiazole] | < 5e-08 M |
| C[C@@H](c1ccc2c(c1)OCO2)N1CCN(c2nc3ccccc3[nH]2)CC1 [Example 138, (S)-2-(4-(1-(benzo[d][1,3]dioxol-5-yl)ethyl)piperazin-1-yl)-1H-benzo[d]imidazole] | 1e-06 to 1e-05 M |
| CC(c1ccc2c(c1)CCO2)N1CCN(c2ncccn2)CC1 (racemic) [Example 53, 2-(4-(1-(2,3-dihydrobenzofuran-5-yl)ethyl)piperazin-1-yl)pyrimidine] | 2e-07 to 1e-06 M |
| CC(=O)Nc1nnc(N2CCN(C(C)c3ccc4scnc4c3)CC2)s1 (racemic) [Example 114, N-(5-(4-(1-(benzo[d]thiazol-5-yl)ethyl)piperazin-1-yl)-1,3,4-thiadiazol-2-yl)acetamide] | < 5e-08 M |
| CC(c1ccc2c(c1)OCO2)N1CCN(c2ncc(C(=O)N3CCOCC3)s2)CC1 (racemic) [Example 67, (2-(4-(1-(Benzo[d][1,3]dioxol-5-yl)ethyl)piperazin-1-yl)thiazol-5-yl)(morpholino)methanone] | 5e-08 to 2e-07 M |
| CCOC(=O)c1cnc(N2CCN(C(C)c3ccc4c(c3)OCO4)CC2)s1 (racemic) [Example 27, Ethyl 2-(4-(1-(benzo[d][1,3]dioxol-5-yl)ethyl)piperazin-1-yl)thiazole-5-carboxylate] | 2e-07 to 1e-06 M |
| CSc1ccc(N2CCN([C@@H](C)c3ccc4c(c3)OCO4)CC2)nc1 [Example 192, (S)-1-(1-(benzo[d][1,3]dioxol-5-yl)ethyl)-4-(5-(methylthio)pyridin-2-yl)piperazine] | < 5e-08 M |
| CCOC(=O)c1ccc(N2CCN([C@@H](C)c3ccc4c(c3)OCO4)CC2)nc1 [Example 183, Ethyl (S)-6-(4-(1-(benzo[d][1,3]dioxol-5-yl)ethyl)piperazin-1-yl)nicotinate] | 5e-08 to 2e-07 M |

Same assay, conditions: measured according to Example B01

| Structure (SMILES) | OGA inhibitor activity (in words) |
| --- | --- |
| COc1ccc(C(C)N2CCN(c3ccc(Br)c(OC)n3)CC2)cc1OC (centres unmarked) [compound of example 72 of WO 2005/110982, reference compound] | not active as OGA inhibitors |
| Cc1ncc(N2CCN(C(C)c3ccc4c(c3)OCO4)CC2)s1 (racemic) [Example 37, 5-(4-(1-(Benzo[d][1,3]dioxol-5-yl)ethyl)piperazin-1-yl)-2-methylthiazole] | very potent OGA inhibitors |
| CC(=O)Nc1nnc(N2CCN(C(C)c3ccc4scnc4c3)CC2)s1 (racemic) [Example 114, N-(5-(4-(1-(benzo[d]thiazol-5-yl)ethyl)piperazin-1-yl)-1,3,4-thiadiazol-2-yl)acetamide] | very potent OGA inhibitors |

Same assay, conditions: read-out: OGA IC50

| Structure (SMILES) | IC50 |
| --- | --- |
| c1cnc(N2CCN(Cc3ccc4c(c3)OCO4)CC2)nc1 [U.S. Pat. No. 3,299,067 (Example 1), reference compound] | 9.98e-07 M |
